Reference: patent US9309285B2, “Macrocyclic broad spectrum antibiotics” (priority 2012, dated 2016)
Positions of bridges follow the written chain, without caps; N, C: chain ends. Non-standard residues stand in square brackets, D forms with d. Residues, ends and D or L forms follow the SMILES beside them. *: point of attachment. boroAla((+)-pinanediol) = C[C@H](N*)B1O[C@@H]2C[C@@H]3C[C@@H](C3(C)C)[C@]2(C)O1; Biphenylcarbonyl(4'-Bu) = CCCCc1ccc(-c2ccc(C(=O)*)cc2)cc1; Aad = N[C@@H](CCCC(=O)O)C(=O)O; Orn = NCCC[C@H](N)C(=O)O

Key:
[1] = test system: Methicillin Resistant Staphylococcus aureus strain USA 300 (NRS384); assay: MIC by broth micro-dilution (CLSI), S. aureus; type: cell-based; conditions: Staphylococcus aureus, MRSA / NRS 384 / USA300; MRSA USA 300 (NRS384); cation adjusted Mueller Hinton Broth + 0.002% Tween-80; 35° C., 22 hours; read-out: MIC (μg/mL) S. aureus
Experimental: In vitro antimicrobial activity of each compound was determined by measuring minimal inhibitor concentrations (MICs) using the broth micro-dilution technique as approved by the Clinical and Laboratory Standards Institute (CLSI) (Methods for Dilution Antimicrobial Susceptibility Tests for Bacteria that Grow Aerobically; Approved Standard—Eighth Edition. CLSI document M07-A8. Wayne, Pa.: Clinical and Laboratroy Standards; 2009). Antibacterial activity was measure against two strains of bacteria: a Methicillin Resistant Staphylococcus aureus strain USA 300 (NRS384) and a strain of Escherichia coli MC4100 harboring the IMP4213, which results in increased outer-membrane permeability (B Martin and Silhavy T. Imp/OstA is required for cell envelope biogenesis in Escherichia coli. (2002) Molecular Microbiology, 45(5), 1289-1302). Cells were inoculated onto plates of Trypyticase Soy Agar or Luria Agar respectively and grown at 35° C. for 20 hours. Inocula suspensions were prepared by scraping cells into 1 ml of testing media (cation adjusted Mueller Hinton Broth supplemented with 0.002% v/v Tween-80) and diluting to a final OD600 nm of 0.01.
Test compounds were prepared in DMSO at a concentration of 10 mg/ml. These compound stocks were diluted into testing media at a concentration of 64 μg/ml and serial 2-fold dilutions were made in the same media, in 96-well U bottom microtiter dishes, for a total of 10 compound concentrations. Inocula suspensions were added to the 2-fold serial dilutions of test compounds to a final density of OD OD600 nm of 0.0005 and incubated at 35° C. for 22 hours.

E. coli SPase = target: T1, E. coli SPase (Escherichia coli, UniProt P00803); assay: SPase enzyme inhibition assay, fluorogenic peptide substrate, E. coli; type: biochemical; conditions: 3 nM E. coli SPase, 20 μM substrate, 10 minutes pre-incubation, room temperature; read-out: IC 50 (nM) E. coli
T1 construct: Full length His-tagged E. coli and S. aureus SPase proteins were expressed in E. coli BL21; His tag; made in house; host or cells: E. coli BL21 (DE3)
Experimental: (§1) Briefly, for expression of E. coli SPase, saturated overnight cultures grown in 20 ml of Luria-Bertani medium supplemented with ampicillin were subcultures into 1.5 L of Luria-Bertani, and shaken at 37° C. until an optical density at 600 nm of 0.4-0.5 was achieved. […] S. aureus SPase was expressed and purified similarly, with the following exceptions. […] Resin bound protein was washed in a similar buffer containing 1% Elugent in place of Triton X-100 prior to protein elution in wash buffer supplemented with 300 mM imidazole. […] All protein concentrations were determined by BCA assay.
(§2) Enzyme master solution was prepared by diluting Escherichia coli or Staphylococcus aureus SPase protein into reaction buffer to a final concentration of 3 nM or 10 nM respectively. Reaction buffer consisted of 20 mM NaKHPO4 pH 7.4, 100 mM NaCl, and 1% v/v Elugent™ detergent. Reactions were initiated by the addition of substrate to a final concentration of 20 μM. Reaction progress was monitored by measuring the increase in fluorescence signal (excitation at 314 nm, emission at 416 nm) using a SpectraMax M2 fluorescence microplate reader. […] Three-folder serial dilutions of test compounds, starting at 10 μM, were prepared in enzyme mix solution and incubated at room temperature for 10 minutes. Following this incubation, fluorogenic substrate was added to a final concentration of 20 μM and the increase in fluorescence, corresponding to substrate cleavage, was monitored continuously at room temperature for 1 hour. Initial reaction rates were calculated based on the rate of increase in fluorescence during the reaction. Reaction rates were plotted as a function of compound concentration, and IC50 values were determined nonlinear regression analysis (SoftMaxPro 5.4, Molecular Devices™) of the sigmoidal dose-response curve.

S. aureus SPase = target: T2, S. aureus SPase (Staphylococcus aureus, UniProt P0A070); assay: SPase enzyme inhibition assay, fluorogenic peptide substrate, S. aureus; type: biochemical
T2 construct: Full length His-tagged E. coli and S. aureus SPase proteins were expressed in E. coli BL21; His tag; made in house; host or cells: E. coli BL21 (DE3)
T2 sequence (P0A070 1-191): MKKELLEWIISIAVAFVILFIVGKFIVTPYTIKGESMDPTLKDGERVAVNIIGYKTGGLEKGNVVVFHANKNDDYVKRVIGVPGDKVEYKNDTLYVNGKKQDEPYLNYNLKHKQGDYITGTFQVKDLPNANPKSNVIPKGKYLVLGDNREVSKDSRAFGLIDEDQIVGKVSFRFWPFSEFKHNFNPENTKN
Experimental: as §1, §2

T1 sequence (P00803 whole entry): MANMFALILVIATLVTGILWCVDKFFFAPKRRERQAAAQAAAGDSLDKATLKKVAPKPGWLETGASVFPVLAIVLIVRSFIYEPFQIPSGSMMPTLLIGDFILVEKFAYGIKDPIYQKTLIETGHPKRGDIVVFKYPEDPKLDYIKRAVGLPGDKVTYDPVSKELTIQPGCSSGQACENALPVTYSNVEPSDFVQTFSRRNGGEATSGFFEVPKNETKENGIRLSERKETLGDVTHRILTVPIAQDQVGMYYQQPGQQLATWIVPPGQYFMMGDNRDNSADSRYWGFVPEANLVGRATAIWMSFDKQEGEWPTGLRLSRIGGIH

SMILES	MIC [1] [µg/mL]	IC50 (E. coli SPase) [nM]	IC50 (S. aureus SPase) [nM]
CCCCc1ccc(-c2ccc(C(=O)NCC(C)C(=O)N[C@@H](CCCCN)C(=O)N(C)[C@@H]3C(=O)N[C@@H](C)C(=O)N[C@H](C(=O)O)Cc4ccc(O)c(c4)-c4cc3ccc4O)cc2)cc1 (mixture of isomers) [Compound 104]	4	3.7	12
CCCCc1ccc(-c2ccc(C(=O)NC(CCCCN)C(=O)N[C@H]3COCCCCOC[C@@H](C(=O)N[C@@H](C)B4O[C@@H]5C[C@@H]6C[C@@H](C6(C)C)[C@]5(C)O4)NC(=O)[C@H](C)NC3=O)cc2)cc1 (mixture of isomers) [Compound 206]	4	81	600
CCCCc1ccc(-c2ccc(C(=O)NCC(C)C(=O)N[C@@H](CCN)C(=O)N(C)[C@@H]3C(=O)N[C@@H](C)C(=O)N[C@H](C(=O)O)Cc4ccc(O)c(c4)-c4cc3ccc4O)cc2)cc1 (single isomer, unassigned) [Compound 114]	64	730	2200
CCCCc1ccc(-c2ccc(CC(=O)NCCC(=O)N[C@@H](CCCCN)C(=O)N(C)[C@@H]3C(=O)N[C@@H](C)C(=O)N[C@H](C(=O)O)Cc4ccc(O)c(c4)-c4cc3ccc4O)cc2)cc1 [Compound 101]	6.3	5.4	30
CCCCc1ccc(-c2ccc(C(=O)N[C@H](C)C(=O)N[C@@H](CCCCN)C(=O)N(C)[C@@H]3C(=O)N[C@@H](C)C(=O)N[C@H](C(=O)O)Cc4ccc(O)c(c4)-c4cc3ccc4O)cc2)cc1 [Compound 102]	10	11	280
CCCCc1ccc(-c2ccc(C(=O)N[C@@H](CCCCN)C(=O)N(C)[C@@H]3C(=O)N[C@@H](C)C(=O)N[C@H](C(=O)O)Cc4ccc(O)c(c4)-c4cc3ccc4O)cc2)cc1 [Compound 110]	–	1.4	350
CCCCCCCCCCCCCC(=O)N[C@@H](CCCCN)C(=O)N(C)[C@@H]1C(=O)N[C@@H](C)C(=O)N[C@H](C(=O)O)Cc2ccc(O)c(c2)-c2cc1ccc2O [Compound 111]	–	2.2	160
CCCCCCCCCCCCCC(=O)N[C@@H](CCCCN)C(=O)N(C)[C@@H]1C(=O)N[C@@H](C)C(=O)N[C@H](C(=O)NCB(O)O)Cc2ccc(O)c(c2)-c2cc1ccc2O [Compound 118]	–	7.6	31
CCCCCCCCCCCCCC(=O)N[C@@H](CCCCN)C(=O)N(C)[C@@H]1C(=O)N[C@@H](C)C(=O)N[C@H](C(=O)N[C@@H](C)B(O)O)Cc2ccc(O)c(c2)-c2cc1ccc2O [Compound 119]	–	8.6	33
CCCCc1ccc(-c2ccc(C(=O)NC[C@@H](C)C(=O)N[C@@H](CCCCN)C(=O)N(C)[C@@H]3C(=O)N[C@@H](C)C(=O)N[C@H](C(=O)N[C@@H](C)B4OC5C[C@@H]6C[C@@H](C6(C)C)[C@]5(C)O4)Cc4ccc(O)c(c4)-c4cc3ccc4O)cc2)cc1 (some centres unmarked) [Compound 120]	–	18	220
CCCCCCCC(=O)NCCC(=O)N[C@@H](CCCCN)C(=O)N(C)[C@@H]1C(=O)N[C@@H](C)C(=O)N[C@H](C(=O)O)Cc2ccc(O)c(c2)-c2cc1ccc2O [Compound 122]	–	27	130
CCCCCCCC(=O)N[C@@H](CCCCN)C(=O)N(C)[C@@H]1C(=O)N[C@@H](C)C(=O)N[C@H](C(=O)O)Cc2ccc(O)c(c2)-c2cc1ccc2O [Compound 124]	–	23	1000
C[C@@H]1NC(=O)[C@@H](N(C)C(=O)[C@H](CCCCN)NC(=O)c2ccc(-c3ccc(Cl)cc3)cc2)c2ccc(O)c(c2)-c2cc(ccc2O)C[C@@H](C(=O)O)NC1=O [Compound 127]	–	1.4	440
C[C@@H]1NC(=O)[C@@H](N(C)C(=O)[C@H](CCN)NC(=O)c2ccc(-c3ccc(Cl)cc3)cc2)c2ccc(O)c(c2)-c2cc(ccc2O)C[C@@H](C(=O)O)NC1=O [Compound 128]	–	1.5	3500
CCCCCCCC(=O)NCCC(=O)N[C@@H](CCCCN)C(=O)N(C)[C@@H]1C(=O)N[C@@H](C)C(=O)N[C@H](C(=O)N[C@@H](C)C(N)=O)Cc2ccc(O)c(c2)-c2cc1ccc2O [Compound 129]	–	370	140
CCCCCCCC(=O)NCCC(=O)N[C@@H](CCCCN)C(=O)N(C)[C@@H]1C(=O)N[C@@H](C)C(=O)N[C@H](C(N)=O)Cc2ccc(O)c(c2)-c2cc1ccc2O [Compound 130]	–	160	580
CCCCCCCC(=O)NCCC(=O)N[C@@H](CCCCN)C(=O)N(C)[C@@H]1C(=O)N[C@@H](C)C(=O)N[C@H](C(=O)N[C@@H](C)C(=O)N2CCC[C@H]2C(N)=O)Cc2ccc(O)c(c2)-c2cc1ccc2O [Compound 131]	–	180	3.3
CNC(=O)[C@@H]1CCCN1C(=O)[C@H](C)NC(=O)[C@@H]1Cc2ccc(O)c(c2)-c2cc(ccc2O)[C@H](N(C)C(=O)[C@H](CCCCN)NC(=O)c2ccc(-c3ccc(Cl)cc3)cc2)C(=O)N[C@@H](C)C(=O)N1 [Compound 136]	–	44	47
C[C@@H]1NC(=O)[C@@H](N(C)C(=O)[C@H](CCCCN)NC(=O)c2ccc(-c3ccc(Cl)cc3)cc2)c2ccc(O)c(c2)-c2cc(ccc2O)C[C@@H](C(=O)N[C@@H](C)C(=O)N(C)C)NC1=O [Compound 137]	–	350	3100
CCCCc1ccc(-c2ccc(C(=O)NC[C@@H](C)C(=O)N[C@@H](CCCCN)C(=O)N(C)[C@@H]3C(=O)N[C@@H](C)C(=O)N[C@H](C(=O)N[C@@H](C)C(=O)N4CCC[C@H]4C(N)=O)Cc4ccc(O)c(c4)-c4cc3ccc4O)cc2)cc1 [Compound 138]	–	30	78
CCCCc1ccc(-c2ccc(C(=O)N[C@@H](CCCCN)C(=O)N[C@H]3CCC(=O)NCCCC[C@@H](C(=O)N[C@@H](C)B4O[C@@H]5C[C@@H]6C[C@@H](C6(C)C)[C@]5(C)O4)NC(=O)[C@H](C)NC3=O)cc2)cc1 [Compound 201] ({Biphenylcarbonyl(4'-Bu)}-KEAK-{boroAla((+)-pinanediol)}; lactam 2-4)	–	15	150
CCCCc1ccc(-c2ccc(C(=O)N[C@@H](CCCCN)C(=O)N[C@H]3CCC(=O)NCCC[C@@H](C(=O)N[C@@H](C)B4O[C@@H]5C[C@@H]6C[C@@H](C6(C)C)[C@]5(C)O4)NC(=O)[C@H](C)NC3=O)cc2)cc1 [Compound 202] ({Biphenylcarbonyl(4'-Bu)}-KEA[Orn]-{boroAla((+)-pinanediol)}; lactam 2-4)	–	28	200
CCCCc1ccc(-c2ccc(C(=O)N[C@@H](CCCCN)C(=O)N[C@H]3CCCC(=O)NCCCC[C@@H](C(=O)N[C@@H](C)B4O[C@@H]5C[C@@H]6C[C@@H](C6(C)C)[C@]5(C)O4)NC(=O)[C@H](C)NC3=O)cc2)cc1 [Compound 203] ({Biphenylcarbonyl(4'-Bu)}-K[Aad]AK-{boroAla((+)-pinanediol)}; lactam 2-4)	–	8.9	81
CCCCc1ccc(-c2ccc(C(=O)N[C@@H](CCCCN)C(=O)N(C)[C@@H]3C(=O)N[C@@H](C)C(=O)N[C@H](C(=O)N[C@@H](C)B4O[C@@H]5C[C@@H]6C[C@@H](C6(C)C)[C@]5(C)O4)CCCCCc4cc3ccc4OC)cc2)cc1 [Compound 208]	–	680	> 10000
